Results on eight compounds are retold here after US10745382B2 (BRISTOL-MYERS SQUIBB COMPANY, priority 2015, dated 2020).

As usually defined, the IC50 is the midpoint of a concentration-inhibition curve.

In the assay the target is T1, PD-1/PD-L1 (Homo sapiens, UniProt Q9NZQ7).
T1 construct: made in house; host or cells: HEK293T
T1 sequence (Q9NZQ7 with tags, fused parts or gaps): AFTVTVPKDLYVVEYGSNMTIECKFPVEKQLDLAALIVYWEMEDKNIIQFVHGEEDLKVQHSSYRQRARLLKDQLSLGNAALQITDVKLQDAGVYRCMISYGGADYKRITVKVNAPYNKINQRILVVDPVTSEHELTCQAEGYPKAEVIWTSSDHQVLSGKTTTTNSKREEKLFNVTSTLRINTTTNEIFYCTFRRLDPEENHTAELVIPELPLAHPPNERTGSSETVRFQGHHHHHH
The experiment in a line: PD-1/PD-L1 Homogenous Time-Resolved Fluorescence (HTRF) binding assay. Particulars: PD-L1-His 10 nM, PD-1-Ig 20 nM; value given as range class; read-out: Range or IC50. In short, it runs like this:
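Compounds are tested for blocking the PD-1/PD-L1 interaction in dPBS supplemented with 0.1% BSA and 0.05% (v/v) Tween-20. Tagged proteins are detected with Eu-cryptate anti-Ig and APC anti-His at 1 and 20 nM final.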
Turning to `Cc1c(COc2cc(OCc3cncc(C#N)c3)c(CN3CCCCC3CO)cc2Cl)cccc1-c1cccc(OCCCN2CCCCC2CO)c1C` (centres unmarked) [Example 2256, 5-((4-chloro-2-((2-(hydroxymethyl)piperidin-1-yl)methyl)-5-((3′-(3-(2-(hydroxymethyl)piperidin-1-yl)propoxy)-2,2′-dimethylbiphenyl-3-yl)methoxy)phenoxy)methyl)nicotinonitrile], the IC50 fell in the range of 0.21 to 10 nM.
With `Cc1c(COc2cc(OCc3cncc(C#N)c3)c(CN3CC[C@H](CO)[C@H](O)C3)cc2Cl)cccc1-c1cccc(OCCCN2CC[C@H](CO)[C@H](O)C2)c1C` [Example 2257, 5-((4-chloro-2-(((3S,4R)-3-hydroxy-4-(hydroxymethyl)piperidin-1-yl)methyl)-5-((3′-(3-((3S,4R)-3-hydroxy-4-(hydroxymethyl)piperidin-1-yl)propoxy)-2,2′-dimethylbiphenyl-3-yl)methoxy)phenoxy)methyl)nicotinonitrile] the figure was 0.21 to 10 nM.
On to `Cc1c(COc2cc(OCc3cncc(C#N)c3)c(CN3CCN(CCO)CC3)cc2Cl)cccc1-c1cccc(OCCCN2CCN(CCO)CC2)c1C` [Example 2258, 5-((4-chloro-2-((4-(2-hydroxyethyl)piperazin-1-yl)methyl)-5-((3′-(3-(4-(2-hydroxyethyl)piperazin-1-yl)propoxy)-2,2′-dimethylbiphenyl-3-yl)methoxy)phenoxy)methyl)nicotinonitrile], for which the IC50 lay in the range of 0.21 to 10 nM.
Consider `Cc1c(COc2cc(OCc3cncc(C#N)c3)c(CN3CCC[C@H](C(=O)O)C3)cc2Cl)cccc1-c1cccc(OCCCN2CCC[C@H](C(=O)O)C2)c1C` [Example 2259, (3S)-1-(3-(3′-((4-(((S)-3-carboxypiperidin-1-yl)methyl)-2-chloro-5-((5-cyanopyridin-3-yl)methoxy)phenoxy)methyl)-2,2′-dimethylbiphenyl-3-yloxy)propyl)piperidine-3-carboxylic Acid], for which the IC50 was 0.21 to 10 nM.
For the compound `Cc1c(COc2cc(OCc3cncc(C#N)c3)c(CN[C@@](C)(CO)C(=O)O)cc2Cl)cccc1-c1cccc(OCCCN2CCCC(CO)C2)c1C` (stereo partly drawn) [Example 2260, (2S)-2-(5-chloro-2-((5-cyanopyridin-3-yl)methoxy)-4-((3′-(3-(3-(hydroxymethyl)piperidin-1-yl)propoxy)-2,2′-dimethylbiphenyl-3-yl)methoxy)benzylamino)-3-hydroxy-2-methylpropanoic Acid], the IC50 lay within 0.21 to 10 nM.
For `Cc1c(COc2cc(OCc3cncc(C#N)c3)c(CN[C@@](C)(CO)C(=O)O)cc2Cl)cccc1-c1cccc(OCCCN2CC[C@H](CO)[C@H](O)C2)c1C` [Example 2261, (2S)-2-(5-chloro-2-((5-cyanopyridin-3-yl)methoxy)-4-((3′-(3-((3 S,4R)-3-hydroxy-4-(hydroxymethyl)piperidin-1-yl)propoxy)-2,2′-dimethylbiphenyl-3-yl)methoxy)benzylamino)-3-hydroxy-2-methylpropanoic Acid], the IC50 was 0.21 to 10 nM.
Regarding `Cc1c(COc2cc(OCc3cncc(C#N)c3)c(CN[C@@](C)(CO)C(=O)O)cc2Cl)cccc1-c1cccc(OCCCN2CCC[C@H](O)C2)c1C` [Example 2262, (2S)-2-(5-chloro-2-((5-cyanopyridin-3-yl)methoxy)-4-((3′-(3-((S)-3-hydroxypiperidin-1-yl)propoxy)-2,2′-dimethylbiphenyl-3-yl)methoxy)benzylamino)-3-hydroxy-2-methylpropanoic Acid], the IC50 fell in the range of 0.21 to 10 nM.
As to `Cc1c(COc2cc(OCc3cncc(C#N)c3)c(CN[C@@](C)(CO)C(=O)O)cc2Cl)cccc1-c1cccc(OCCCN2CCN(CCO)CC2)c1C` [Example 2263, (2S)-2-(5-chloro-2-((5-cyanopyridin-3-yl)methoxy)-4-((3′-(3-(4-(2-hydroxyethyl)piperazin-1-yl)propoxy)-2,2′-dimethylbiphenyl-3-yl)methoxy)benzylamino)-3-hydroxy-2-methylpropanoic Acid], the IC50 was in the range of 0.21 to 10 nM.
